# Measurements as given in ChEMBL document CHEMBL5236548, “Marine Natural Products: A Potential Source of Anti-hepatocellular Carcinoma Drugs” (J Med Chem, 2021).
# Tests used:
# [1] = Cytotoxicity against human HCC cells by SRB assay; assay type: functional, cell-based
# [2] = Cytotoxicity against human Zip177 cells by SRB assay; assay type: functional, cell-based
# [3] = system: SMMC-7721; experiment: Cytotoxicity against human SMMC-7721 cells assessed as reduction in cell viability by SRB assay; assay type: functional, cell-based
# [4] = system: Bel-7402; experiment: Cytotoxicity against human Bel-7402 cells by SRB assay; assay type: functional, cell-based
# [5] = system: Hep 3B2; experiment: Cytotoxicity against human Hep3B cells by SRB assay; assay type: functional, cell-based
# [6] = system: HepG2; experiment: Antiproliferative activity against human HepG2 cells assessed as reduction in cell viability at 50 ug/ml measured after 24 hrs relative to control; assay type: functional, cell-based; details: HepG2, 24 h
# [7] = system: SK-HEP1; experiment: Cytotoxicity against human SK-HEP1 cells measured after 1 hr by SRB assay; assay type: functional, cell-based; details: SK-HEP1, 1 h
# [8] = Cytotoxicity against human Huh-7D12 cells measured after 1 hr by SRB assay; assay type: functional, cell-based; details: Huh-7D12, 1 h
# [9] = system: PLC-PRF-5; experiment: Cytotoxicity against human PLC-PRF-5 cells measured after 1 hr by SRB assay; assay type: functional, cell-based; details: PLC-PRF-5, 1 h
# [10] = system: HepG2; experiment: Cytotoxicity against human HepG2 cells measured after 1 hr by SRB assay; assay type: functional, cell-based; details: HepG2, 1 h
# [11] = system: Hep 3B2; experiment: Cytotoxicity against human Hep3B cells measured after 1 hr by SRB assay; assay type: functional, cell-based
# [12] = […] of cell cycle arrest in human HepG2 cells assessed as accumulation of cells at S phase at 50 uM relative to control; assay type: functional; design: scale not given: the % may be the effect or the level left
# [13] = Antitumor activity against human HCCLM3 cells xenografted in BALB/c nude mouse assessed as inhibition of tumor growth at 20 mg/kg measured for 14 days relative to control; assay type: functional; details: HCCLM3, 336 h, time 14 day
# [14] = Antitumor activity against human HCCLM3 cells xenografted in BALB/c nude mouse assessed as reduction in Ki67 at 20 mg/kg measured for 14 days (reference value: 41.67+/-7.22% ); assay type: functional; design: scale not given: the % may be the effect or the level left; details: time 14 day
# [15] = […] of cell cycle arrest in human HCCLM3 cells assessed as accumulation of cells at G2/M phase at 25 uM relative to control; assay type: functional; design: scale not given: the % may be the effect or the level left
# [16] = […] of cell cycle arrest in human HCCLM3 cells assessed as accumulation of cells at S phase at 25 uM relative to control; assay type: functional; design: scale not given: the % may be the effect or the level left
# [17] = […] of cell cycle arrest in human HepG2 cells assessed as accumulation of cells at G2/M phase at 50 uM relative to control; assay type: functional; design: scale not given: the % may be the effect or the level left
# [18] = system: PLC-PRF-5; experiment: Induction of cell cycle arrest in human PLC-PRF-5 cells assessed as accumulation of cells at G0/G1 phase at 200 nM incubated for 24 hrs relative to control; assay type: functional
# [19] = system: PLC-PRF-5; experiment: Induction of cell cycle arrest in human PLC-PRF-5 cells assessed as accumulation of cells at G0/G1 phase at 100 nM incubated for 24 hrs relative to control; assay type: functional
# [20] = system: PLC-PRF-5; experiment: Induction of cell cycle arrest in human PLC-PRF-5 cells assessed as accumulation of cells at G0/G1 phase at 50 nM incubated for 24 hrs relative to control; assay type: functional
# [21] = system: SMMC-7721; experiment: Induction of cell cycle arrest in human SMMC-7721 cells assessed as accumulation of cells at G0/G1 phase at 200 nM incubated for 24 hrs relative to control; assay type: functional
# [22] = system: SMMC-7721; experiment: Antitumor activity against human SMMC-7721 cells xenografted in mouse assessed as reduction in tumor growth at 25 microg/kg administered daily for 40 days relative to control; assay type: functional; design: scale not given: the % may be the effect or the level left; details: dose 25 µg/kg; time 40 day
# [23] = system: SMMC-7721; experiment: Induction of cell cycle arrest in human SMMC-7721 cells assessed as accumulation of cells at G0/G1 phase at 100 nM incubated for 24 hrs relative to control; assay type: functional
# [24] = system: SMMC-7721; experiment: Antitumor activity against human SMMC-7721 cells xenografted in mouse assessed as reduction in tumor growth at 50 microg/kg administered daily for 40 days relative to control; assay type: functional; design: scale not given: the % may be the effect or the level left; details: dose 50 µg/kg; time 40 day
# [25] = system: SMMC-7721; experiment: Induction of cell cycle arrest in human SMMC-7721 cells assessed as accumulation of cells at G0/G1 phase at 50 nM incubated for 24 hrs relative to control; assay type: functional
compound,measurement,setting,value
COC(=O)[C@H](CCCC(C)C)[C@H]1CC[C@H]2[C@@H]3CC[C@H]4CC(=O)C=C[C@]4(C)[C@H]3CC[C@]12C [METHYL SPONGOATE],IC50,[1],4400 nM
same,IC50,[2],3000 nM
same,IC50,[3],2000 nM
same,IC50,[4],1700 nM
same,IC50,[5],5000 nM
H-RIRDAIAHGYIVDKV-OH,IC50,[6],28300 nM
C/C=C1/NC(=O)[C@H](Cc2ccccc2)NC(=O)[C@@H](C(C)C)NC(=O)[C@@H]([C@@H](C)CC)NC(=O)[C@H](NC(=O)[C@H](NC(=O)[C@H](CCCN)NC(=O)[C@H]2CCCN2C(=O)[C@H](NC(=O)[C@@H](NC(=O)[C@@H](NC(=O)[C@H](NC(=O)CCCC(C)C)C(C)C)[C@@H](C)O)C(C)C)C(C)C)[C@@H](C)CC)[C@@H](C)OC(=O)[C@H](C(C)C)NC1=O,IC50,[7],2400 nM
same,IC50,[8],300 nM
same,IC50,[9],5300 nM
same,IC50,[10],300 nM
same,IC50,[11],350 nM
COc1cc2ccnc3c2c(c1OC)NC=C3 [AAPTAMINE],Activity,[12],50%
same,inhibition in vivo at 20 mg/kg,[13],40.3%
same,Activity,[14],72.2%
same,Activity,[15],50%
same,Activity,[16],50%
same,Activity,[17],50%
CCC/C=C/C=C/C(=O)O[C@H]1/C(=C/C(=O)OC)C[C@H]2C[C@H]([C@@H](C)O)OC(=O)C[C@H](O)C[C@@H]3C[C@H](OC(C)=O)C(C)(C)[C@](O)(C[C@@H]4C/C(=C/C(=O)OC)C[C@H](/C=C/C(C)(C)[C@]1(O)O2)O4)O3 [BRYOSTATIN 1],Activity,[18],54%
same,Activity,[19],40%
same,Activity,[20],34%
same,Activity,[21],56%
same,Activity,[22],32%
same,Activity,[23],44%
same,Activity,[24],39%
same,Activity,[25],37%
